# Experimental data published in patent publication US20230348562A1, “Proinsulin Peptides for Type I Diabetes” (King's College London, priority 2019, published 2023).
# Where no end group is shown, it is not given here.
# Tests used:
# [1] = Solubility of peptide; assay type: physicochemical
# [2] = system: DR3DQ2×RIP-B7.1 mice; assay: Adjuvanted antigen priming (disease acceleration), diabetes monitoring; assay type: in vivo
# From the text: Mice were monitored weekly for diabetes up to 20 weeks post prime. The grey dotted line indicates the expected level of spontaneous diabetes in mice aged 12 weeks on day 0 of the experiments (based on the data in FIG. 1 and normalised for gender). Statistical analysis with Mantel-Cox Log-rank test. **p<0.01, ***p<0.001. • (b-e) Blood glucose levels for each individual mouse in the group immunised with PBS (b), murine proinsulin-2 peptides (c), human GAD65 (d) or fragment of human IA-2 (e).
# Mice were monitored weekly for diabetes up to 20 weeks post prime. The grey dotted line indicates the expected level of spontaneous diabetes in mice aged 8 weeks on day 0 of the experiment, based on the data in FIG. 1 and normalised for gender. Statistical analysis with Mantel-Cox Log-rank test. ***p<0.001 for B23-C20 versus B1-30 or C10-A6. ? p<0.01 for B23-C20 versus C25-A21. Rest not significant. • (b-e) Blood glucose levels for each individual mouse in the group immunised with B1-30 (b), B23-C20 (c), C10-A6 (d) or C25-A21 (e).
# (a) DR3DQ2×RIP-B7.1 mice aged 10-14 weeks were challenged with 100 μg of either GP-15 (2 ♂3♀), YA-15 (2 ♂3♀), ME-15 (3 ♂2♀), RG-15 (3 ♂2♀), DA-15 (2 ♂3♀) or VD-14 (3♂2♀) peptide in TiterMax Gold adjuvant s.c. on days 0 and 14, with 200 ng pertussis toxin administered i.p on days 0 and 1 or 2. Mice were monitored weekly for diabetes up to 20 weeks post prime. The grey dotted line indicates the expected level of spontaneous diabetes in mice aged 14 weeks on day 0 of the experiments (based on the data in FIG. 1 and normalised for gender). Statistical analysis with Mantel-Cox Log-rank test. *p<0.05 for RG-15 versus YA-15, **p<0.01 for ME-15 versus GP-15, YA-15 or VD-14. ? p<0.05 for ME-15 versus DA-15. Rest not significant. (b-f) Blood glucose levels for each individual mouse in the group immunised with GP-15 (b), YA-15 (c), ME-15 (d), RG-15 (e), DA-15 (f), VD-14 (g).
# HLA-DR3-DQ2-transgenic (B6.hCD4.DR3-DQ2.MHCII^−/− mice (described previously (de Kauwe A L et al. (2009) J Immunol 182(12): 7440-7450), and obtained from J. McCluskey) were crossed with RIP-B7.1-transgenic animals (B6.Cg-Tg(Ins2-CD80)3B7Flv/Orl, EMMA, Orleans, France; ID 00216) in order to obtain HLA-DR3-DQ2^+huCD4^+IA/IE^−/−RIP.B7.1^+ mice, hereafter referred to as DR3DQ2×RIP-B7.1. DR4×RIP-B7.1 mice, generated by crossing B6.129S2-H2-Ab1^tm/Gru Tg(HLA-DRA/H2-Ea,HLA-DRB1*0401/H2-Eb) 1Kito mice with B6.Cg-Tg(Ins2-CD80)3B7Flv/Orl, were described previously (Verhagen J, et al. (2018) Sci Rep 8(1): 14106). All animals were kept under specific-pathogen-free conditions, in individually ventilated cages, at the KCL Biological Services Unit on 12-hour light/dark cycles with food and water provided ad libitum. Experiments were conducted in accordance with UK Home Office regulations under a project license held by M. Peakman. All work was subject to assessment and approved locally by Guy's animal welfare and ethical review board (AWERB).
# All mice were monitored regularly for unprovoked glycosuria using Diastix strips (Bayer, Basel, Switzerland). Some mice were monitored weekly for hyperglycaemia, from the age of 6-7 weeks, by a minimal puncture of the tail vein at alternate sides of the tail and analysis using a OneTouch Verio meter and strips (Lifescan, High Wycombe, UK), in order to closely monitor progression towards spontaneous diabetes. Mice were considered diabetic following a blood glucose reading >16.7 mmol/l (300 mg/dl) in addition to confirmed glycosuria. […] Mice (aged 6-14 weeks) were primed with 100 μg of peptides or protein in TiterMax Gold adjuvant (TiterMax, Norcross, GA, USA) subcutaneously (s.c.) at the base of the tail and received a second dose s.c. distributed over the inguinal region on day 14. Mice received 200 ng Pertussis toxin (Sigma, Poole, UK) in PBS intraperitoneally (i.p.) on days 0 and 1 or 2. Mice were then monitored weekly for hyperglycaemia and for glycosuria. […]
# [3] = system: human peripheral blood mononuclear cells (PBMCs); assay: ELISPOT assay of cytokine responses to proinsulin peptides; assay type: cell-based; settings: 10 μg/ml peptide, 48 hours
# From the text: Responses to proinsulin B30-C13 in human donors. PBMC from individuals with either HLA-DR3-DQ2 (a) or any other haplotype (b) were stimulated in vitro with human proinsulin-derived peptide B30-C13 or C19-A3 prior to detection of IFNγ by ELISPOT assay. HLA-DR3-DQ2 individuals, n=3; non-HLA-DR3-DQ2, n=6. *p<0.05, ratio paired t test.
# Responses to proinsulin B23-C20, B29-C11, B29-C14, B30-C13 and C-1-C14 peptides are shown. PBMCs from 5 type 1 diabetes patients with HLA-DR3-DQ2 (identified as #1-#5) were stimulated in vitro with human proinsulin-derived peptides B23-C20, B29-C11, B29-C14, B30-C13 and C−1-C14 prior to detection of IFN-γ and IL-17 (pro-inflammatory responses) and IL-10 (regulatory response) by ELISPOT assay. […]
# ELISPOT assays were carried out using human peripheral blood mononuclear cells (PBMCs) isolated from fresh heparinized blood. […] The cytokine secretion assay was performed using the IFN-γ, IL-17 and IL-10 ELISPOT kits (U-CyTech) according to the manufacturer's instructions and plates were analysed using an automated ELISPOT Bioreader 6000 (Bio-Sys) and relevant software. Data are expressed as the total number of spots in triplicate wells after peptide stimulation divided by the total number of spots in diluent only control wells (stimulation index [SI]) or as responder CD4 T cells/10^6 PBMCs.
# [4] = system: RIP.CD80×DR3DQ2 mice; assay: Tolerance induction against accelerated diabetes; assay type: in vivo; settings: 10 μg soluble peptide s.c., 6 injections, before and after priming with murine B23-C20 in adjuvant; ME-15 versus YA-15 p<0.01, versus VD-14 p<0.05
# Description: FIG. 6 Tolerance induction against accelerated diabetes in RIP.CD80×DR3DQ2 mice. (a) Schedule of dosing. Mice aged 7-8 weeks (n=7 per group) were treated with soluble 14/15-mer peptide in PBS subcutaneously (s.c.) before and after acceleration of diabetes development by antigenic priming with 30-mer murine proinsulin-2 peptide B23-C20 in TiterMax Gold adjuvant on days 0 and 14. Pertussis toxin administered intraperitoneally (i.p.) on days 0 and 2. (b) Diabetes incidence in mice treated with 14/15-mer peptide ME-15 (1♀6♂), YA-15 (4♀3♂) or VD-14 (3♀4♂). Statistical analysis with Mantel-Cox Log-rank test. ME-15 versus YA-15, p<0.01; ME versus VD-14, p<0.05.
# All mice were monitored regularly for unprovoked glycosuria using Diastix strips (Bayer, Basel, Switzerland). Some mice were monitored weekly for hyperglycaemia, from the age of 6-7 weeks, by a minimal puncture of the tail vein at alternate sides of the tail and analysis using a OneTouch Verio meter and strips (Lifescan, High Wycombe, UK), in order to closely monitor progression towards spontaneous diabetes. Mice were considered diabetic following a blood glucose reading >16.7 mmol/l (300 mg/dl) in addition to confirmed glycosuria. […] Mice were then monitored weekly for hyperglycaemia and for glycosuria. […]
# [5] = adjuvanted priming, follow up to 20 weeks post prime
substance,measurement,setting,value
"REVEDPQVAQLELGG [RG-15, REVEDPQVAQLELGG]",solubility in aqueous solution,[1]; aqueous solution,highly insoluble
same,solubility in dimethyl sulfoxide,[1]; dimethyl sulfoxide,soluble
"DPQVAQLELGGGPGA (listed as Mus musculus) [DA-15, murine proinsulin-2 15-mer]",diabetes acceleration / incidence versus control or spontaneous onset (in words),[2]; [5],cannot
"TRREAEDLQVGQVELG (listed as Homo sapiens) [B30-C13, fragment of human proinsulin, residues B30-C13]","IFNγ ELISPOT response, HLA-DR3-DQ2 donors versus donors without this haplotype","[3]; HLA-DR3-DQ2 n=3, non-HLA-DR3-DQ2 n=6",greater response
same,IFNγ ELISPOT response versus control peptide C19-A3,[3]; p<0.05 ratio paired t test,greater than that to our control peptide C19-A3
MSRREVEDPQVAQLE (listed as Mus musculus) [ME-15],diabetes acceleration / incidence versus control or spontaneous onset (in words),[2]; [5],markedly higher disease incidence during follow up than would be expected spontaneously
same,tolerogenic effect on diabetes induced with B23-C20,[4],tolerogenic effect
"VAQLELGGGPGAGD (listed as Mus musculus) [VD-14, murine proinsulin-2 14-mer]",diabetes acceleration / incidence versus control or spontaneous onset (in words),[2]; [5],cannot
"GFFYTPMSRREVEDPQVAQLELGGGPGAGD (listed as Mus musculus) [B23-C20, murine 30-mer proinsulin-2 peptide B23-C20]",mean time of onset of diabetes (SD),"[2]; 100 μg in TiterMax Gold adjuvant s.c. days 0 and 14, pertussis toxin",49±16.2 days post prime
same,diabetes incidence,"[2]; by day 84 post prime, 100 μg in TiterMax Gold adjuvant",100%
same,diabetes acceleration / incidence versus control or spontaneous onset (in words),"[2]; mouse, in vivo","most overt disease exacerbation, with very rapid development of diabetes"
GAD65: Recombinant human GAD65 (T-cell GAD) purchased from Diamyd Medical,diabetes acceleration / incidence versus control or spontaneous onset (in words),[2]; [5],only priming with proinsulin peptides clearly hastened diabetes onset and increased incidence
